The values that follow come from patent publication US7709475B2, “Selective inhibitors against Cdk4 and Cdk6 having aminothiazole skeleton” (Banyu Pharmaceutical Co., Ltd., priority 2004, dated 2010).

Experiment [1] addresses T1, cyclin D2-Cdk4 (Homo sapiens, UniProt P11802).
T1 construct: made in house; host or cells: insect cell Sf9 (baculovirus)
Description: Cdk4 inhibitory action: cyclin D2-Cdk4 kinase activity, 33P-ATP, RB peptide substrate. Type of experiment: biochemical. As to conditions: cyclin D2-Cdk4, 50 μM ATP. The text has this:
First, the cDNA of Cdk4, and the cDNA of a fusion protein of cyclin D2, an activating factor of Cdk4, and glutathione S-transferase, were integrated into a baculovirus expression vector to prepare a recombinant baculovirus. This was co-transfected into insect cell Sf9 to express an active complex of the cyclin D2/glutathione S-transferase fusion protein-Cdk4 at a high level. The cells were recovered and solubilized, then the active complex was adsorbed onto Glutathione Sepharose, and a cyclin D2-Cdk4 complex was recovered using Precision Protease and was purified by HPLC column chromatography [EMBO J., Vol. 15, 7060-7069 (1996)].
For the measurement of the activity of cyclin D2-Cdk4, a synthetic peptide (Arg-Pro-Pro-Thr-Leu-Ser-Pro-Ile-Pro-His-Ile-Pro-Arg) corresponding to amino acid residue No. 775-787 of RB protein was used as the substrate [EMBO J., Vol. 15, 7060-7069 (1996)].
The reaction was performed by partially modifying the method of Kitagawa et al. [Oncogene, Vol. 7, 1067-1074 (1992)]. The volume of the reaction solution was 21.1 μL, and the composition of the reaction buffer (R buffer) was 20 mM Tris-hydrochloric acid buffer (pH 7.4)/10 mM magnesium chloride/4.5 mM 2-mercaptoethanol/1 mM ethylene glycol bis(β-aminoethyl ether)-N,N,N′,N′-tetraacetic acid (EGTA). To this reaction buffer, purified cyclin D2-Cdk4, 100 μM of the substrate peptide, 50 μM of non-labeled adenosine triphosphate (ATP), and 1 μCi of [γ-33P]-labeled ATP (2000 to 4000 Ci/mmole) were added to react at 30° C. for 45 minutes. Then, 10 μL of 350 mM phosphate buffer was added to the reaction system to terminate the reaction. The substrate peptide was adsorbed onto P81 paper filter on a 96-well plate, and then washed several times with 75 mM phosphate buffer. The radioactivity of the substrate peptide was measured with a liquid scintillation counter. The [γ-33P]-labeled ATP was purchased from Daiichi Pure Chemicals Co., Ltd.
Addition of the test compound to the reaction system was carried out by first preparing a dilution series of solutions of the compound in dimethylsulfoxide (DMSO), and adding 1.1 μL of the dilutions. A control was provided by adding 1.1 μL of DMSO to the reaction system.
A representative compound of the compounds according to the invention was selected, and the IC50 value of this compound for the cyclin D2-Cdk4 activity was determined.

Experiment [2] addresses T1, cyclin D2-Cdk4. The experiment is described as above. Type of experiment: biochemical. The following applies: for K1/K4, selectivity for Cdk4 against Cdk1: IC50 of Cdk1 divided by IC50 of Cdk4; for K2/K4, selectivity for Cdk4 against Cdk2: IC50 of Cdk2 divided by IC50 of Cdk4; for K5/K4, selectivity for Cdk4 against Cdk5: IC50 of Cdk5 divided by IC50 of Cdk4; for K7/K4, selectivity for Cdk4 against Cdk7: IC50 of Cdk7 divided by IC50 of Cdk4; for K9/K4, selectivity for Cdk4 against Cdk9: IC50 of Cdk9 divided by IC50 of Cdk4.

The subject of the next experiment is EOL-1. Kind of experiment: Inhibitory action against cell proliferation (WST-8), EOL-1. Type of experiment: cell-based. The following applies: Homo sapiens, EOL1, 72 h, EOL-1 cells, 3 days culture, read-out: concentration for 50% inhibition of cell proliferation (IC50), EOL-1. Here is the method:
(§1) Clinically isolated cancer cell lines EOL-1, KU812 and JURKAT were cultured in RPMI1640 medium containing 10% fetal calf serum at 37° C. in the presence of 5% CO2 under an atmosphere of saturated steam.
(§2) The inhibitory action against cell proliferation was measured by modifying the method of Skehan et al. [J. Natl. Cancer Inst., Vo. 82, 1107-1112 (1990)] according to the method of Ishiyama et al. [Talanta, Vol. 44, 1299 (1997)]. 100 μL each of cell culture medium containing 1×10^3 live cells of EOL-1, KU812 and JURKAT, respectively, was dispensed into each well of a 96-well cell culture dish, and the cells were cultured overnight. On the next day, a dilution series of solutions in DMSO was prepared from a DMSO solution of the compound of each Example. Then, the dilution series of solutions or DMSO only as a control for no drug addition were separately added to the medium for cell culture. Finally, 100 μL each of the culture medium containing either the dilution series of solutions of the compounds or DMSO only, was added to the cells which had been cultured in a 96-well dish, and then the cells were further cultured for 3 days.
(§3) After adding 20 μL each of WST-8 (Kishida Chemical Co., Ltd.) to each well and culturing the cells for another 2 hours, the optical densities at 450 nm were measured against a reference wavelength of 650 nm, and were compared with the control group. […]

The test system of the next experiment is KU812. Kind of experiment: Inhibitory action against cell proliferation (WST-8), KU812. It is filed as cell-based. As to conditions: Homo sapiens, 72 h, KU812 cells, 3 days culture, read-out: concentration for 50% inhibition of cell proliferation (IC50), KU812. The protocol:
as §1, §2, §3

The target in a further experiment is T2, p35-Cdk5 (Homo sapiens, UniProt Q00535).
T2 construct: purchased PanVera Corp; host or cells: insect cell
Kind of experiment: Cdk5 inhibitory action: p35-Cdk5 kinase activity. It is filed as biochemical. The following applies: p35-Cdk5, 50 μM ATP. The protocol:
For the measurement of the activity of p35-Cdk5, a human-derived recombinant […] active complex, which was expressed in insect cell and purified, was purchased from PanVera Corp. A synthetic peptide (Ala-Lys-Ala-Lys-Lys-Thr-Pro-Lys-Lys-Ala-Lys-Lys) was used as the substrate.
The reaction was performed by partially modifying the method of Kitagawa et al. [Oncogene, Vol. 7, 1067-1074 (1992)]. The volume of the reaction solution was 21.1 μL, and to the R buffer, purified cyclin p35-Cdk5, 0.01 mg/mL of the substrate peptide, 50 μM of non-labeled adenosine triphosphate (ATP), and 1 μCi of [γ-33P]-labeled ATP ([…]) were added to react at 30° C. for 10 minutes. Then, 10 μL of 350 mM phosphate buffer was added to the reaction system to terminate the reaction. The substrate peptide was adsorbed onto P81 paper filter on a 96-well plate, and then washed several times with 75 mM phosphate buffer. The radioactivity of the substrate peptide was measured with a liquid scintillation counter.
Addition of the compound according to the invention to the reaction system was carried out by first preparing a dilution series of solutions of the compound in dimethylsulfoxide (DMSO), and adding 1.1 μL of the dilutions. A control was provided by adding 1.1 μL of DMSO to the reaction system.
A representative compound of the compounds according to the invention was selected, and the IC50 value of this compound for the p35-Cdk5 activity was determined.

T1 sequence (P11802 whole entry): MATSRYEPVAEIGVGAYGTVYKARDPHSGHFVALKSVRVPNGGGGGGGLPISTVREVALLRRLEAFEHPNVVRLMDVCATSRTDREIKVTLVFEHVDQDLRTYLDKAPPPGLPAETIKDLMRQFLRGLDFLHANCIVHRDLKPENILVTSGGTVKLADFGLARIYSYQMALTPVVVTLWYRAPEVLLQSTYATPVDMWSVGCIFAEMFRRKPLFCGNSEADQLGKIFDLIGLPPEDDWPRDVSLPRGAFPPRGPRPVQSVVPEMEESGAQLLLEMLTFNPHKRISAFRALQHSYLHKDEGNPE
T1 sequence (P30279 whole entry partner): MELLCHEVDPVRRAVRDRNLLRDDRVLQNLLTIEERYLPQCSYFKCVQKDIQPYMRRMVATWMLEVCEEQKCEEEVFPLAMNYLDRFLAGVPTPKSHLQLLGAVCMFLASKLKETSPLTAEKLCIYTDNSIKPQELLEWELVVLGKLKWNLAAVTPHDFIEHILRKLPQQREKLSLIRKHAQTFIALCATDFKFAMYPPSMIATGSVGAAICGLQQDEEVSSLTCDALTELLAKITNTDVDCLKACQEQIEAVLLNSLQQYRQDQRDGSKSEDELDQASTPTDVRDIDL
T2 sequence (Q00535 whole entry): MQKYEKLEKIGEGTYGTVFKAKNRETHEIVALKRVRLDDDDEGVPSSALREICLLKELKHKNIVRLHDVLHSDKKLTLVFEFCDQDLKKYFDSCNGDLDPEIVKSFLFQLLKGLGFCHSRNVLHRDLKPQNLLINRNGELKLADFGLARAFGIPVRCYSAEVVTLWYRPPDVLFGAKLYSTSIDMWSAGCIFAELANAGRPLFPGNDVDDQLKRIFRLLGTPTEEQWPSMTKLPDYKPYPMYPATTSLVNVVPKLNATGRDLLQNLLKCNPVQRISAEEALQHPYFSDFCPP
T2 sequence (Q15078 whole entry partner): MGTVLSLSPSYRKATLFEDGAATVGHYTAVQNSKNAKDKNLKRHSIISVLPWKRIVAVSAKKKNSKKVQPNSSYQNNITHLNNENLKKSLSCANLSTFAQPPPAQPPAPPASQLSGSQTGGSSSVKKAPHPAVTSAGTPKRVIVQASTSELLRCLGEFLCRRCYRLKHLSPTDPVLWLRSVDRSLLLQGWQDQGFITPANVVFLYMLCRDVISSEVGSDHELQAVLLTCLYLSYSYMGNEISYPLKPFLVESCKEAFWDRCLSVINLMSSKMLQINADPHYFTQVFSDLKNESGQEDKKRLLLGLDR

In turn, `Cc1cc(-c2cnc(Nc3cnc(CN4CCC(N(C)C)C4)cn3)s2)nc(SC2CCCCC2)n1` (centres unmarked) [Example 94, 5-[2-(cyclohexylthio)-6-methyl-4-pyrimidinyl]-2-[5-(3-dimethylamino-1-pyrrolidinyl)methyl-2-pyrazinyl]amino-1,3-thiazole] displayed an IC50 at cyclin D2-Cdk4 [1] of 3.9 nM.

`Cc1cc(-c2cnc(Nc3ccc(CN4CCC[C@H]4CO)cn3)s2)nc(NC2CCCCC2)n1` [Example 137, (2S)-5-[2-(cyclohexylamino)-6-methyl-4-pyrimidinyl]-2-[5-(2-hydroxymethyl-1-pyrrolidinyl)methyl-2-pyridyl]amino-1,3-thiazole] had an IC50 at cyclin D2-Cdk4 [1] of 7.2 nM. Moreover, at cyclin D2-Cdk4 [2], the “K1/K4, selectivity for Cdk4 against Cdk1” value came to 167; the “K2/K4, selectivity for Cdk4 against Cdk2” value was 625; the “K5/K4, selectivity for Cdk4 against Cdk5” value amounted to 417; the “K7/K4, selectivity for Cdk4 against Cdk7” value was determined as 167. Also, on cyclin D2-Cdk4 [2], the “K9/K4, selectivity for Cdk4 against Cdk9” value came out at 153.

At cyclin D2-Cdk4 [1], `Cc1cc(-c2cnc(Nc3cnc(CN4CCN(C)CC4)cn3)s2)nc(OC2CCCCC2)n1` [Example 1, 5-[2-(cyclohexyloxy)-6-methyl-4-pyrimidinyl]-2-[5-(4-methyl-1-piperazinyl)methyl-2-pyrazinyl]amino-1,3-thiazole] showed an IC50 of 9.2 nM. Also, the IC50 in the experiment with EOL-1 worked out at 54 nM. The IC50 in the experiment on KU812 came to 150 nM. For the same molecule, at cyclin D2-Cdk4 [2], the “K1/K4, selectivity for Cdk4 against Cdk1” value came out at 65; the “K2/K4, selectivity for Cdk4 against Cdk2” value was 185; the “K5/K4, selectivity for Cdk4 against Cdk5” value is 326; the “K7/K4, selectivity for Cdk4 against Cdk7” value is 58. Moreover, the “K9/K4, selectivity for Cdk4 against Cdk9” value at cyclin D2-Cdk4 [2] is 272.

Turning to `Cc1cc(-c2cnc(Nc3cnc(CN4CCCC4)cn3)s2)nc(SC2CCCCC2)n1` [Example 93, 5-[2-(cyclohexylthio)-6-methyl-4-pyrimidinyl]-2-[5-(1-pyrrolidinyl)methyl-2-pyrazinyl]amino-1,3-thiazole], the results for the IC50 on cyclin D2-Cdk4 [1] and against p35-Cdk5 were 4.2 nM and 2900 nM, respectively.

On cyclin D2-Cdk4 [1], `Cc1cc(-c2cnc(Nc3cnc(CNC(C)C)cn3)s2)nc(SC2CCCCC2)n1` [Example 96, 5-[2-(cyclohexylthio)-6-methyl-4-pyrimidinyl]-2-[5-(isopropylamino)methyl-2-pyrazinyl]amino-1,3-thiazole] showed an IC50 of 5.8 nM.

With `Cc1cc(-c2cnc(Nc3cnc(CNCCO)cn3)s2)nc(SC2CCCCC2)n1` [Example 99, 5-[2-(cyclohexylthio)-6-methyl-4-pyrimidinyl]-2-[5-(2-hydroxyethylamino)methyl-2-pyrazinyl]amino-1,3-thiazole], the figures for the IC50 at cyclin D2-Cdk4 [1] and against p35-Cdk5 were 6 nM and 2400 nM, respectively.

On cyclin D2-Cdk4 [1], `Cc1cc(-c2cnc(Nc3cnc(CN4CCC(N(C)C)C4)cn3)s2)nc(OC2CCCCC2)n1` (centres unmarked) [Example 13, 5-[2-(cyclohexyloxy)-6-methyl-4-pyrimidinyl]-2-[5-(3-dimethylamino-1-pyrrolidinyl)methyl-2-pyrazinyl]amino-1,3-thiazole] showed an IC50 of 6 nM. Further, the IC50 on p35-Cdk5 was 2600 nM. Moreover, at cyclin D2-Cdk4 [2], the “K1/K4, selectivity for Cdk4 against Cdk1” value was determined as 103; the “K2/K4, selectivity for Cdk4 against Cdk2” value is on record as 142; the “K5/K4, selectivity for Cdk4 against Cdk5” value was 433; the “K7/K4, selectivity for Cdk4 against Cdk7” value was 62. Moreover, on cyclin D2-Cdk4 [2], the “K9/K4, selectivity for Cdk4 against Cdk9” value amounted to 72.

Regarding `CC(=O)N1CCN(Cc2ccc(Nc3ncc(-c4cc(C)nc(OC5CCCCC5)n4)s3)nc2)CC1` [Example 125, 5-[2-(cyclohexyloxy)-6-methyl-4-pyrimidinyl]-2-[5-(4-acetyl-1-piperazinyl)methyl-2-pyridyl]amino-1,3-thiazole], the IC50 on cyclin D2-Cdk4 [1] came to 9 nM; in the experiment with EOL-1, 5.6 nM; with KU812, 180 nM.

In the case of `Cc1cc(-c2cnc(Nc3cnc(CN4CCN(C)CC4)cn3)s2)nc(NC2CCCCC2)n1` [Example 55, 5-[2-(cyclohexylamino)-6-methyl-4-pyrimidinyl]-2-[5-(4-methyl-1-piperazinyl)methyl-2-pyrazinyl]amino-1,3-thiazole], the IC50 at cyclin D2-Cdk4 [1] was found to be 3.8 nM.

On to `Cc1cc(-c2cnc(Nc3cnc(CN4CCN(C)CC4)cn3)s2)nc(Sc2ccccc2Cl)n1` [Example 109, 5-[2-(2-chlorophenylthio)-6-methyl-4-pyrimidinyl]-2-[5-(4-methyl-1-piperazinyl)methyl-2-pyrazinyl]amino-1,3-thiazole], for which, at cyclin D2-Cdk4 [1], the IC50 turned out to be 5.7 nM.
